Test results taken from patent publication US20170158702A1, “MULTIVALENT RAS BINDING COMPOUNDS” (KYRAS THERAPEUTICS, INC., priority 2015, published 2017).
Counter-ions that a name gives are not always drawn.

Experiments:
Assay type in all cases: cell-based
NCI-H460 = experiment: Viability assay with NCI-H460 (CellTiter-Glo cytotoxicity assay, 72 h); conditions: NCI-H460 cell line, 72 h after compounds addition
Protocol: (§1) NCI-H460 (Epithelial lung tissue; carcinoma; large cell lung cancer) were cultured in RPMI Medium 1640 (Invitrogen-22400105) supplemented with 10% fetal bovine serum (FBS; Invitrogen-10099141). All the cell lines were maintained in a humidified incubator at 37° C. with 5% CO2. Cell culture media and supplements were purchased from Invitrogen, and tissue culture flasks were purchased from Corning, 96-well plates were purchased from Greiner. CellTiter-Glo Luminescent Cell Viability Assay kits were purchased from Promega (Promega-G7573), cells counter Vi-Cell was purchased from Beckman, D300e digital dispenser was purchased from Tecan, detection instrument Envision was purchased from PerkinElmer.
(§2) Paclitaxel was purchased from SELLECK, test compounds, such as any one of the compounds disclosed herein, attained solubility in DMSO and when diluted into culture media. DMSO, solutions containing the test compounds, and culture media were warmed to 37° C. or room temperature for the solution preparation and dilutions.
(§3) NCI-H460 Cell line were seeded in 96-well plates (1200/well) and allowed to adhere to overnight (100 uL/well), for drug treatments with 2 fold dilution, 9 dose points, triplicates or vehicle control, compound stock solutions were prepared in DMSO and use D300e digital dispenser to add compounds to the wells to give the indicated final drug concentrations. Final DMSO concentration was 0.5%. Cellular ATP concentrations were assessed by using the CellTiter-Glo Cell Viability Assay as per the manufacturer's instructions 72 h after compounds addition. Additional cells lines were assayed with any one of the compounds disclosed herein according to the procedures described for the viability assay with NCI-H460.

HT-29 = experiment: Viability assay with HT-29; conditions: HT-29, viability assay per Example 57
Protocol: as §1, §2, §3
A viability assay with HT-29 (Colorectal adenocarcinoma) was performed with compounds listed in Table 18 according to the procedures described in Example 57.

MIA PaCa-2 = experiment: Viability assay with MIA PaCa-2; conditions: MIA PaCa-2, viability assay per Example 57
Protocol: as §1, §2, §3
A viability assay with MIA PaCa-2 (Epithelial pancreas tissue; carcinoma) was performed with compounds listed in Table 15, according to the procedures described in Example 57.

Structure (SMILES) | EC50 (HT-29) [µM] | EC50 (MIA PaCa-2) [µM] | EC50 (NCI-H460) [µM]
NCCCn1cc(-c2ccccc2C(N)=O)c2cc(CN3CCN(Cc4ccccc4Cl)CC3)ccc21 [C185; HCl] | 5 to 10 | 5 to 10 | 5 to 10
NCCCn1cc(-c2ccc(OC(F)(F)F)cc2CN)c2cc(CN3CCSCC3)ccc21 [C282; HCl] | ≤ 5 | ≤ 5 | ≤ 5
Cc1ccc(-c2cn(CCCN)c3ccc(CC4CCN(Cc5ccccc5Cl)CC4)cc23)c(CN)c1 [C269; Formic Acid] | ≤ 5 | ≤ 5 | ≤ 5
NCCCn1cc(-c2ccc(OC(F)(F)F)cc2)c2cc(CN3CCC(Nc4ccc(Cl)cc4)CC3)ccc21 [C210; HCl] | ≤ 5 | ≤ 5 | ≤ 5
CCC1CCN(Cc2ccc3c(c2)c(-c2ccc(C)cc2CN)cn3CCCN)CC1 [C256; HCl] | 5 to 10 | 5 to 10 | 5 to 10
COc1cc(CN2CCN(S(=O)(=O)c3ccc4c(c3)c(-c3ccc(OC(F)(F)F)cc3CN)cn4CCCN)CC2)cc(OC)c1 [C240; Formic Acid] | ≤ 5 | ≤ 5 | ≤ 5
NCCCn1cc(-c2ccc(OC(F)(F)F)cc2CN)c2cc(CN3CCC(O)CC3)ccc21 [C290; HCl] | 5 to 10 | 5 to 10 | 5 to 10
COc1cc(NC2CCN(Cc3ccc4c(c3)c(-c3ccc(OC(F)(F)F)cc3CN)cn4CCCN)CC2)cc(OC)c1 [C278; HCl] | ≤ 5 | ≤ 5 | ≤ 5
NCCCn1cc(-c2cccc(C(N)=O)c2)c2cc(CN3CCN(Cc4ccccc4Cl)CC3)ccc21 [C179; HCl] | ≤ 5 | ≤ 5 | ≤ 5
NCCCn1cc(-c2ccc(OC(F)(F)F)cc2)c2cc(CN3CCN(Cc4ccc(Cl)c(Cl)c4)CC3)ccc21 [C138; HCl] | ≤ 5 | ≤ 5 | ≤ 5
COc1ccc(-n2c(=O)n(CCCN)c3ccc(CN4CCN(Cc5ccccc5Cl)CC4)cc32)cc1 [C200; HCl] | 5 to 10 | 5 to 10 | 5 to 10
NCCCn1cc(-c2ccc(OC(F)(F)F)cc2CN)c2cc(S(=O)(=O)N3CCC(Nc4cccc(Cl)c4)CC3)ccc21 [C263; Formic Acid] | 5 to 10 | ≤ 5 | ≤ 5
COc1ccccc1CN1CCN(Cc2ccc3c(c2)c2ccccc2n3CCCN)CC1 [C268; HCl] | ≤ 5 | 5 to 10 | 5 to 10
NCCCn1cc(-c2ccc(OC(F)(F)F)cc2CN)c2cc(CN3CCN(Cc4cccc5c4OCO5)CC3)ccc21 [C304; HCl] |  | ≤ 5 | ≤ 5
NC1(C(=O)NCCCn2cc(-c3ccc(OC(F)(F)F)cc3)c3cc(CN4CC5CCC(C4)N5Cc4c(Cl)cccc4Cl)ccc32)CCNCC1 [C86; Formic acid] |  | ≤ 5 | ≤ 5
COc1ccccc1CN1CCN(Cc2ccc3c(c2)c(-c2ccc(OC(F)(F)F)cc2)cn3CCCNC(=O)C2(N)CCNCC2)CC1 [C59; Formic acid] |  | ≤ 5 | ≤ 5
NC1(C(=O)NCCCn2cc(-c3ccc(OC(F)(F)F)cc3)c3cc(CN4CCN(Cc5ccccc5F)CC4)ccc32)CCNCC1 [C60; Formic acid] |  | ≤ 5 | ≤ 5
NC1(C(=O)NCCCn2cc(-c3ccc(OC(F)(F)F)cc3)c3cc(CNC4C5CN(Cc6c(Cl)cccc6Cl)CC54)ccc32)CCNCC1 (centres unmarked) [C79; Formic acid] |  | ≤ 5 | ≤ 5
CC(C)(C)OC(=O)N1CCC(N)(C(=O)NCCCc2cn(-c3ccc(OC(F)(F)F)cc3)c3cc(CN4CCN(Cc5c(Cl)cccc5Cl)CC4)ccc23)CC1 [C73; Formic acid] |  | ≤ 5 | ≤ 5
NCC(N)C(=O)NCCCn1cc(-c2ccc(OC(F)(F)F)cc2)c2cc(CN3CCN(Cc4c(Cl)cccc4Cl)CC3)ccc21 (centres unmarked) [C81; HCl] |  | ≤ 5 | ≤ 5

Further lines, with some results ahead:

EC50 (HT-29) [µM] | EC50 (MIA PaCa-2) [µM] | Structure (SMILES) | EC50 (NCI-H460) [µM]
≤ 5 | ≤ 5 | NCCCn1cc(-c2ccc(OC(F)(F)F)cc2)c2c(CN3CCN(CCOc4ccc(Cl)cc4)CC3)cccc21 [C144; HCl] | ≤ 5
≤ 5 | ≤ 5 | COc1cccc(CN2CCN(Cc3ccc4c(c3)c(-c3ccc(OC(F)(F)F)cc3CN)cn4C3CCNCC3)CC2)c1 [C274; HCl] | ≤ 5
≤ 5 | ≤ 5 | COc1cc(CN2CCN(Cc3ccc4c(c3)c(-c3ccc(OC(F)(F)F)cc3CN)cn4C3CCNCC3)CC2)cc(OC)c1 [C275; HCl] | ≤ 5
5 to 10 | ≤ 5 | CCC1CCN(Cc2ccc3c(c2)c(-c2ccc(OC)cc2CN)cn3CCCN)CC1 [C255; HCl] | 5 to 10
≤ 5 | ≤ 5 | CCC1CCN(Cc2ccc3c(c2)c(-c2ccc(OC(F)(F)F)cc2CN)cn3CCCN)CC1 [C261; HCl] | ≤ 5
≤ 5 | ≤ 5 | NCCCn1cc(-c2ccc(OC(F)(F)F)cc2CN)c2cc(CN3CCN(Cc4cccc(OC(F)(F)F)c4)CC3)ccc21 [C267; HCl] | ≤ 5
5 to 10 | 5 to 10 | Cc1ncc(CN2CCN(Cc3ccc4c(c3)c(-c3ccc(OC(F)(F)F)cc3)cn4CCCN)CC2)[nH]1 [C195; HCl] | 5 to 10
≤ 5 | ≤ 5 | NCCCn1cc(-c2ccc(OC(F)(F)F)cc2)c2cc(CN3CCSCC3)ccc21 [C293; HCl] | ≤ 5
≤ 5 | ≤ 5 | NC1CCC(n2cc(-c3ccc(OC(F)(F)F)cc3)c3cc(CN4CCN(Cc5ccccc5Cl)CC4)ccc32)C1 (centres unmarked) [C134; HCl] | ≤ 5
≤ 5 | ≤ 5 | NCCCn1cc(-c2ccccc2CO)c2cc(CN3CCN(Cc4ccccc4Cl)CC3)ccc21 [C181; HCl] | ≤ 5
≤ 5 | ≤ 5 | NCCCn1cc(-c2ccc(OC(F)(F)F)cc2)c2cc(NC3CCN(Cc4ccccc4Cl)CC3)ccc21 [C129; HCl] | ≤ 5
≤ 5 | ≤ 5 | NCCCn1nc(-c2ccc(OC(F)(F)F)cc2)c2cc(CN3CCN(Cc4ccccc4Cl)CC3)ccc21 [C178; HCl] | ≤ 5
≤ 5 | ≤ 5 | NCCCn1cc(-c2ccc(OC(F)(F)F)cc2)c2cc(CN3CCN(Cc4ccn[nH]4)CC3)ccc21 [C187; HCl] | ≤ 5
≤ 5 | ≤ 5 | CC(C)(N)CCCn1cc(-c2ccc(OC(F)(F)F)cc2CN)c2cc(CN3CCN(Cc4ccccc4Cl)CC3)ccc21 [C251; HCl] | ≤ 5
≤ 5 | ≤ 5 | NC1(C(=O)NCCCn2nc(-c3ccc(OC(F)(F)F)cc3)c3cc(CN4CCN(Cc5ccccc5Cl)CC4)ccc32)CCNCC1 [C201; HCl] | ≤ 5
≤ 5 | ≤ 5 | FC(F)(F)Oc1ccc(-c2cn(CC3CCCNC3)c3ccc(CN4CCN(Cc5ccccc5Cl)CC4)cc23)cc1 (centres unmarked) [C230; HCl] | ≤ 5
≤ 5 | ≤ 5 | COc1ccc(-c2cn(CCCN)c3ccc(CN4CCN(Cc5ccccc5Cl)CC4)cc23)c(CN(C)C)c1 [C284; HCl] | ≤ 5
≤ 5 |  | NCCCn1cc(-c2ccccc2CCN)c2cc(CN3CCN(Cc4ccccc4Cl)CC3)ccc21 [C131; HCl] | 
 | ≤ 5 | NC1(C(=O)NCCCn2cc(-c3ccc(OC(F)(F)F)cc3)c3cc(CN4CCN(Cc5c(Cl)cccc5Cl)CC4)cnc32)CCNCC1 [C174; HCl] | ≤ 5
